Laboratory results as given in publication PMC7806260, “A gustatory receptor tuned to the steroid plant hormone brassinolide in Plutella xylostella (Lepidoptera: Plutellidae)” (eLife, 2020).

Target: T1, PxylGr34 (Plutella xylostella, UniProt A0ABQ7Q355)
T1 construct: gene JYU34_016516; no tag or co-receptor stated
T1 sequence (A0ABQ7Q355 1-418): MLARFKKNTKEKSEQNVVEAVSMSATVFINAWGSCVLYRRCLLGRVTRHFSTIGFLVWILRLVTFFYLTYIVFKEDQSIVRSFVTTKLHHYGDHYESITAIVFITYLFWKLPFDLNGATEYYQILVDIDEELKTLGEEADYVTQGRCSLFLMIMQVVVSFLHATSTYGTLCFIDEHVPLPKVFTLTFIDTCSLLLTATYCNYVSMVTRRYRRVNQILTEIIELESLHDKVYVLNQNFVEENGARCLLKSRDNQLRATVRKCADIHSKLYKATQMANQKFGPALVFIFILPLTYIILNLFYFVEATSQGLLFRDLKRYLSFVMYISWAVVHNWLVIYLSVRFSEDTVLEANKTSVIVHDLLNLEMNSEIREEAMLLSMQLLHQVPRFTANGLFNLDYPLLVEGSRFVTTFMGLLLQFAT
Experiment: two-electrode voltage clamp, Xenopus oocytes
Type: cell-based
Details: inward current, agonist at 10^-4 M, pH 7.5, holding potential -80 mV

Compound: C=CCN=C=S [Allyl isothiocyanate]
- two-electrode voltage clamp, Xenopus oocytes: Oocytes expressing PxylGr34 showed weak responses to methyl jasmonate and allyl isothiocyanate

Compound: CC(C)[C@H](C)[C@@H](O)[C@H](O)[C@@H](C)[C@H]1CC[C@H]2[C@@H]3COC(=O)[C@H]4C[C@H](O)[C@H](O)C[C@]4(C)[C@H]3CC[C@]12C [Brassinolide]
- two-electrode voltage clamp, Xenopus oocytes (dose series recorded): BL induced a strong response in the oocytes expressing PxylGr34

Compound: CC/C=C\C[C@H]1C(=O)CC[C@@H]1CC(=O)OC [Methyl jasmonate]
- two-electrode voltage clamp, Xenopus oocytes: Oocytes expressing PxylGr34 showed weak responses to methyl jasmonate and allyl isothiocyanate
